Laboratory results from patent publication EP1721601A1, “Use of taurine for enhancing lipid synthesis in the epidermis” (Henkel Kommanditgesellschaft auf Aktien, priority 2005, dated 2006).
“Also recorded” adds a separate entry of the source.

Columns and labels:
[1] = test system: epidermale Barrierefunktion; test: Epidermal barrier function (TEWL) after repetitive SDS damage in vivo
Description: Anschließend wurden Öl-in-Wasser-Emulsionen mit 1,5 Gew.-% Behenylalkohol und 2,75 Gew.-% Arachidylalkohol (VAR1: 0 Gew.-% Taurin; VAR2: 1 Gew.-% Taurin) appliziert, oder die Haut verblieb unbehandelt (VAR3). Diese Behandlung wurde zweimal täglich an 5 Tagen durchgeführt. Der transepidermale Wasserverlust (TEWL) wurde jeweils vor der SDS-Schädigung mit einem […] (Courage & Khazaka, Köln, Germany) bestimmt. Die Daten wurden auf die t0-Werte normiert und ein dimensionsloser Wert "area under the curve" errechnet (siehe Tabelle 1). Die statistische Analyse der Daten basiert auf dem gepaarten Wilcoxon-Test. Die Daten repräsentieren die Mittelwerte (n=18). Tab. 2: Einfluss von Taurin auf Irritationsmarker in vitro

Epidermismodelle [2] = test: Irritation markers in vitro: viability and LDH release of SDS-damaged epidermis models; assay type: cell-based; settings: for LDH-Freisetzung / Vitalität: 1 h 0,18% SDS, rinsed, then 24 h topical emulsion (C: 0.1 Gew.-% Triamcinolonacetonid; E: 1 Gew.-% Taurin; B: no further treatment), mean +/- SEM, n=3; for LDH-Freisetzung: unbehandelt 0,22, Vehikel 1,95; for Vitalität: unbehandelt 100, Vehikel 66
Experimental: (§1) Anschließend wurden die Epidermismodelle abgespült und für weitere 24h unter topischer Applikation folgender Emulsionen inkubiert: C: Kortikoid-ratiopharm® Creme (0.1 Gew.-% Triamcinolonacetonid); D: 1,5 Gew.-% Behenylalkohol + 2,75 Gew.-% Arachidylalkohol; E: 1,5 Gew.-% Behenylalkohol + 2,75 Gew.-% Arachidylalkohol +1 Gew.-% Taurin. […] Die Daten repräsentieren die Mittelwerte +/-SEM (n=3).

[3] = test system: Interleukin 1-alpha (IL-1alpha); test: Irritation markers in vitro: IL-1alpha release of SDS-damaged epidermis models; assay type: cell-based; settings: for IL-1alpha-Freisetzung: 1 h 0,18% SDS, rinsed, then 24 h topical emulsion (C: 0.1 Gew.-% Triamcinolonacetonid; E: 1 Gew.-% Taurin; B: no further treatment), mean +/- SEM, n=3, unbehandelt 15, Vehikel 387
Experimental: as §1

Prostaglandin E2 (PGE2) = test: Irritation markers in vitro: PGE2 release of SDS-damaged epidermis models; assay type: cell-based; settings: for PGE2-Freisetzung: 1 h 0,18% SDS, rinsed, then 24 h topical emulsion (C: 0.1 Gew.-% Triamcinolonacetonid; E: 1 Gew.-% Taurin; B: no further treatment), mean +/- SEM, n=3, unbehandelt 0,84, Vehikel 1,40
Experimental: as §1

Epidermismodelle [4] = test: Epidermal synthesis of barrier lipids in epidermis models; assay type: cell-based
Experimental: Epidermismodelle wurden 12 Tage lang kultiviert. Nach 12 Tagen (t = 0) wurden die individuell entwickelten sogenannten Barrierelipide (Ceramide, Cholesterol, Fettsäuren, Cholesterolsulfate und Cholesterolester) quantifiziert. Anschließend wurde ein Teil der Epidermismodelle 5 Tage lang ohne Zusatz von Taurin weiterkultiviert. Ein anderer Teil der Epidermismodelle wurde 5 Tage lang […] Zusatz von 0,3 mM Taurin weiterkultiviert. Nach insgesamt 17 Tagen Kultivierungsdauer (t = 5) wurden erneut die Barrierelipide quantifiziert. […] Die in Tab. 3 gezeigten Unterschiede zu t = 5 waren statistisch signifikant (p<0,05). Tabelle 3: Einfluss von Taurin auf die epidermale Synthese von Barrierelipiden (Angaben der Menge an Barrierelipiden in Gew.-%, bezogen auf den Gesamtlipidgehalt der Epidermismodelle, Mittelwerte aus n = 4 Messungen (± Standardabweichung))

[5] = incubation of skin models with Taurin, result in words

Row | Structure (SMILES) | TEWL "area under the curve", Mittelwert in % (Unbehandelt = 100 %) ([1]; O/W emulsion with 1 Gew.-% Taurin after occlusive 0.75% SDS, twice daily on 5 days, n=18, Vehikel 62,5 %) | transepidermaler Wasserverlust (TEWL), "area under the curve", Mittelwert ([1]; O/W emulsion with 1 Gew.-% Taurin after occlusive 0.75% SDS, twice daily on 5 days, normalised to t0, n=18) | Regeneration der Hautbarrierefunktion nach SDS-Schädigung ([1]; application of Taurin, result in words) | transepidermaler Wasserverlust (TEWL) ([1]; topical application of Taurin after repeated SDS treatment of the skin, result in words) | LDH-Freisetzung (Epidermismodelle [2]) | Vitalität (Epidermismodelle [2]) | Integrität der Keratinozytenmembran (Epidermismodelle [2]; [5]) | Vitalität der Keratinozyten (Epidermismodelle [2]; [5]) | IL-1alpha-Freisetzung [3] | Ausschüttung von Interleukin-1-alpha [3, 5] | PGE2-Freisetzung (Prostaglandin E2 (PGE2)) | Ausschüttung von Prostaglandin-E2 (Prostaglandin E2 (PGE2); [5]) | Cholesterolsulfat (Epidermismodelle [4]; 0,3 mM Taurin for 5 days (t = 5, 17 days culture), % of total lipid content, mean of n = 4 (± SD), without Taurin 0,6) | Cholesterol-ester (Epidermismodelle [4]; 0,3 mM Taurin for 5 days (t = 5, 17 days culture), % of total lipid content, mean of n = 4 (± SD), without Taurin 0,9) | Fettsäuren (Epidermismodelle [4]; 0,3 mM Taurin for 5 days (t = 5, 17 days culture), % of total lipid content, mean of n = 4 (± SD), without Taurin 3,5) | Ceramide (Epidermismodelle [4]; 0,3 mM Taurin for 5 days (t = 5, 17 days culture), % of total lipid content, mean of n = 4 (± SD), without Taurin 7,1) | Cholesterol (Epidermismodelle [4]; 0,3 mM Taurin for 5 days (t = 5, 17 days culture), % of total lipid content, mean of n = 4 (± SD), without Taurin 9,9) | Spiegel an Ceramiden, Cholesterol und freien Fettsäuren (Epidermismodelle [4]; skin models with Taurin, result in words) | epidermale Synthese von Barrierelipiden (Epidermismodelle [4]; skin/epidermis models with Taurin, result in words, differences at t = 5 significant (p<0,05))
1 | NCCS(=O)(=O)O [Taurin, 2-Aminoethansulfonsäure] | 30,3% | 881932 arbitrary units | signifikant beschleunigt | senkte den TEWL in signifikantem Ausmaß | 1,30 +/- 0,15 OD 492nm | 82 +/- 2% | stabilisierte sich | verbesserte sich | 288 ± 37 pg/mL | nahm die Ausschüttung von Interleukin-1-alpha und von Prostaglandin-E2 ab | 0,83 +/- 0,05 ng/ml | nahm die Ausschüttung von Interleukin-1-alpha und von Prostaglandin-E2 ab | 1,0 (± 0,2) Gew.-% | 1,6 (± 0,2) Gew.-% | 5,7 (± 1,5) Gew.-% | 11.7 (± 1,6) Gew.-% | 11,0 (± 1,2) Gew.-% | in gleichem Ausmaß | in signifikantem Ausmaß die Synthese aller drei Klassen von Barrierelipiden; also recorded: Steigerung der epidermalen Synthese von Barrierelipiden
2 | CC1(C)O[C@@H]2C[C@H]3[C@@H]4CCC5=CC(=O)C=C[C@]5(C)[C@@]4(F)[C@@H](O)C[C@]3(C)[C@]2(C(=O)CO)O1 [Triamcinolonacetonid, reference compound] |  |  |  |  | 1,19 +/- 0,16 OD 492nm | 86 +/- 8% |  |  | 292 ± 26 pg/mL |  | 0,30 +/- 0,05 ng/ml |  |  |  |  |  |  |  | 
